Source: patent US9890368B2, “Polypeptide fragments comprising endonuclease activity and their use” (priority 2008, dated 2018)

Tests used:
[1] = molecular target: PA-Nter (SEQ ID NO: 22) endonuclease (Influenza A virus, UniProt P31343, G154E); assay type: biochemical, Influenza A virus A/Victoria/3/1975 (H3N2)
PA-Nter (SEQ ID NO: 22) = PA-Nter (SEQ ID NO: 22) (Influenza A virus, UniProt P31343, G154E); assay type: binding, Influenza A virus A/Victoria/3/1975 (H3N2)

Molecule | inhibition of endonuclease activity on both RNA and DNA [1] | apparent melting temperature (PA-Nter (SEQ ID NO: 22)) [°C] | effect on thermal stability of metal-free enzyme (PA-Nter (SEQ ID NO: 22)) | thermal stability of PA-Nter in the presence of MnCl2 (PA-Nter (SEQ ID NO: 22)) | increase in thermal stability upon addition of divalent cation (PA-Nter (SEQ ID NO: 22))
O=C(O)C(=O)CC(=O)c1ccccc1 [DPBA, 2,4-Dioxo-4-phenylbutanoic acid] | inhibited in a dose dependent manner | 65 | no effect | further stabilizes | 
calcium |  |  |  |  | to a lesser extent
magnesium ions |  |  |  |  | to a lesser extent
manganese ions |  | 57 |  |  | 
